Tests used:
[1] = system: L02; assay: Cytotoxicity against human L02 cells assessed as increase in LDH leakage by LDH assay; format: cell-based
[2] = Hemolytic activity in rabbit erythrocytes; format: ADME, cell-based, Oryctolagus cuniculus, Erythrocyte; conditions: read-out: HD50 (the source's name)
[3] = system: L02; assay: Induction of cell cycle arrest in human L02 cells assessed as G0/G1 phase accumulation at 8 uM by PI staining based flow cytometry analysis (reference value: 53.77 %); conditions: l02, 8 µM
[4] = Oil-water partition coefficient, logP of compound; format: physicochemical
[5] = system: L02; assay: Induction of apoptosis in human L02 cells assessed as early apoptotic cells at 10 uM by annexin-V-FITC/PI staining based flow cytometry analysis (reference value: 3.81 %); format: cell-based; conditions: l02, 10 µM
[6] = system: L02; assay: Induction of apoptosis in human L02 cells assessed as early apoptotic cells at 8 uM by annexin-V-FITC/PI staining based flow cytometry analysis (reference value: 3.81 %); format: cell-based; conditions: l02, 8 µM
[7] = system: L02; assay: Cytotoxicity against human L02 cells by MTT assay; format: cell-based
[8] = system: L02; assay: Induction of cell cycle arrest in human L02 cells assessed as S phase accumulation at 8 uM by PI staining based flow cytometry analysis (reference value: 38.23 %); conditions: l02, 8 µM
[9] = system: L02; assay: Induction of apoptosis in human L02 cells assessed as decrease in ratio of Bcl-2/Bax at 8 to 12 ug/ml measured after 24 hrs by Western blot analysis; format: cell-based; conditions: l02, 24 h, dose 8-12 µg/ml
[10] = system: L02; assay: Induction of apoptosis in human L02 cells assessed as late apoptotic cells at 10 uM by annexin-V-FITC/PI staining based flow cytometry analysis (reference value: 0.92 %); format: cell-based; conditions: l02, 10 µM
[11] = system: L02; assay: Induction of apoptosis in human L02 cells assessed as late apoptotic cells at 8 uM by annexin-V-FITC/PI staining based flow cytometry analysis (reference value: 0.92 %); format: cell-based; conditions: l02, 8 µM
[12] = system: L02; assay: Induction of apoptosis in human L02 cells assessed as upregulation of FAS expression at 8 to 12 ug/ml measured after 24 hrs by Western blot analysis; format: cell-based; conditions: l02, 24 h, dose 8-12 µg/ml
[13] = system: L02; assay: Induction of apoptosis in human L02 cells assessed as increase in cleaved caspase 8 level at 8 to 12 ug/ml measured after 24 hrs by Western blot analysis; format: cell-based; conditions: l02, 24 h, dose 8-12 µg/ml
[14] = system: L02; assay: Induction of cell cycle arrest in human L02 cells assessed as G0/G1 phase accumulation at 6 uM by PI staining based flow cytometry analysis (reference value: 53.77 %); conditions: l02, 6 µM
[15] = system: L02; assay: Induction of apoptosis in human L02 cells assessed as early apoptotic cells at 6 uM by annexin-V-FITC/PI staining based flow cytometry analysis (reference value: 3.81 %); format: cell-based; conditions: l02, 6 µM
[16] = system: L02; assay: Induction of apoptosis in human L02 cells assessed as late apoptotic cells at 6 uM by annexin-V-FITC/PI staining based flow cytometry analysis (reference value: 0.92 %); format: cell-based; conditions: l02, 6 µM
[17] = system: L02; assay: Induction of cell cycle arrest in human L02 cells assessed as G2/M phase accumulation at 8 uM by PI staining based flow cytometry analysis (reference value: 8 %); conditions: l02, 8 µM
[18] = system: L02; assay: Induction of cell cycle arrest in human L02 cells assessed as G2/M phase accumulation at 6 uM by PI staining based flow cytometry analysis (reference value: 8 %); conditions: l02, 6 µM
[19] = system: L02; assay: Induction of cell cycle arrest in human L02 cells assessed as S phase accumulation at 6 uM by PI staining based flow cytometry analysis (reference value: 38.23 %); conditions: l02, 6 µM
[20] = system: L02; assay: Induction of cell cycle arrest in human L02 cells assessed as G0/G1 phase accumulation at 10 uM by PI staining based flow cytometry analysis (reference value: 53.77 %); conditions: l02, 10 µM
[21] = system: L02; assay: Induction of apoptosis in human L02 cells assessed as decrease in caspase 9 level at 8 to 12 ug/ml measured after 24 hrs by Western blot analysis; format: cell-based; conditions: l02, 24 h, dose 8-12 µg/ml
[22] = system: L02; assay: Induction of cell cycle arrest in human L02 cells assessed as G2/M phase accumulation at 10 uM by PI staining based flow cytometry analysis (reference value: 8 %); conditions: l02, 10 µM
[23] = system: L02; assay: Induction of apoptosis in human L02 cells assessed as decrease in caspase 8 level at 8 to 12 ug/ml measured after 24 hrs by Western blot analysis; format: cell-based; conditions: l02, 24 h, dose 8-12 µg/ml
[24] = system: L02; assay: Induction of cell cycle arrest in human L02 cells assessed as S phase accumulation at 10 uM by PI staining based flow cytometry analysis (reference value: 38.23 %); conditions: l02, 10 µM
[25] = system: L02; assay: Induction of cell cycle arrest in human L02 cells assessed as G0/G1 phase accumulation at 18 uM by PI staining based flow cytometry analysis (reference value: 53.77 %); conditions: l02, 18 µM
[26] = system: L02; assay: Induction of cell cycle arrest in human L02 cells assessed as S phase accumulation at 24 uM by PI staining based flow cytometry analysis (reference value: 38.23 %); conditions: l02, 24 µM
[27] = system: L02; assay: Induction of cell cycle arrest in human L02 cells assessed as G2/M phase accumulation at 24 uM by PI staining based flow cytometry analysis (reference value: 8 %); conditions: l02, 24 µM
[28] = system: L02; assay: Induction of apoptosis in human L02 cells assessed as early apoptotic cells at 24 uM by annexin-V-FITC/PI staining based flow cytometry analysis (reference value: 3.81 %); format: cell-based; conditions: l02, 24 µM
[29] = system: L02; assay: Induction of cell cycle arrest in human L02 cells assessed as G2/M phase accumulation at 18 uM by PI staining based flow cytometry analysis (reference value: 8 %); conditions: l02, 18 µM
[30] = system: L02; assay: Induction of apoptosis in human L02 cells assessed as early apoptotic cells at 18 uM by annexin-V-FITC/PI staining based flow cytometry analysis (reference value: 3.81 %); format: cell-based; conditions: l02, 18 µM
[31] = system: L02; assay: Induction of cell cycle arrest in human L02 cells assessed as G0/G1 phase accumulation at 24 uM by PI staining based flow cytometry analysis (reference value: 53.77 %); conditions: l02, 24 µM
[32] = system: L02; assay: Induction of cell cycle arrest in human L02 cells assessed as G2/M phase accumulation at 26 uM by PI staining based flow cytometry analysis (reference value: 8 %); conditions: l02, 26 µM
[33] = system: L02; assay: Induction of cell cycle arrest in human L02 cells assessed as G0/G1 phase accumulation at 26 uM by PI staining based flow cytometry analysis (reference value: 53.77 %); conditions: l02, 26 µM
[34] = system: L02; assay: Induction of apoptosis in human L02 cells assessed as late apoptotic cells at 24 uM by annexin-V-FITC/PI staining based flow cytometry analysis (reference value: 0.92 %); format: cell-based; conditions: l02, 24 µM
[35] = system: L02; assay: Induction of apoptosis in human L02 cells assessed as early apoptotic cells at 26 uM by annexin-V-FITC/PI staining based flow cytometry analysis (reference value: 3.81 %); format: cell-based; conditions: l02, 26 µM
[36] = system: L02; assay: Induction of apoptosis in human L02 cells assessed as late apoptotic cells at 18 uM by annexin-V-FITC/PI staining based flow cytometry analysis (reference value: 0.92 %); format: cell-based; conditions: l02, 18 µM
[37] = system: L02; assay: Induction of cell cycle arrest in human L02 cells assessed as S phase accumulation at 18 uM by PI staining based flow cytometry analysis (reference value: 38.23 %); conditions: l02, 18 µM
[38] = system: L02; assay: Induction of cell cycle arrest in human L02 cells assessed as S phase accumulation at 26 uM by PI staining based flow cytometry analysis (reference value: 38.23 %); conditions: l02, 26 µM
[39] = system: L02; assay: Induction of apoptosis in human L02 cells assessed as late apoptotic cells at 26 uM by annexin-V-FITC/PI staining based flow cytometry analysis (reference value: 0.92 %); format: cell-based; conditions: l02, 26 µM

Structure (SMILES) | Activity [1] | HC50 [2] | logP [4] | IC50 [7] | Activity [25] | Activity [26] | Activity [27] | Activity [28] | Activity [29] | Activity [30] | Activity [31] | Activity [32] | Activity [33] | Activity [34] | Activity [35] | Activity [36] | Activity [37] | Activity [38] | Activity [39] | other results
C[C@H]1O[C@@H](O[C@@H]2[C@@H](O)[C@@H](CO)O[C@H](O[C@@H]3[C@H](O)[C@@H](O)[C@H](O[C@H]4CC[C@]5(C)[C@H]6CC=C7[C@@H]8CC(C)(C)CC[C@]8(C(=O)O)CC[C@@]7(C)[C@]6(C)CC[C@H]5C4(C)C)O[C@@H]3CO)[C@@H]2O)[C@H](O[C@@H]2OC[C@@H](O)[C@@H](O)[C@@H]2O)[C@@H](O)[C@@H]1O | Toxic | 2.49 µM | -0.0114 | 9.57 µM | – | – | – | – | – | – | – | – | – | – | – | – | – | – | – | Activity [3]: 60.25%; Activity [5]: 1.92%; Activity [6]: 23.4%; Activity [8]: 35.95%; Activity [9]: Toxic; Activity [10]: 92.2%; Activity [11]: 54.1%; Activity [12]: Toxic; Activity [13]: Toxic; Activity [14]: 57.44%; Activity [15]: 7.62%; Activity [16]: 7.91%; Activity [17]: 3.8%; Activity [18]: 8%; Activity [19]: 34.56%; Activity [20]: 67.43%; Activity [21]: Toxic; Activity [22]: 0.45%; Activity [23]: Toxic; Activity [24]: 32.14%
C[C@@H]1O[C@@H](O[C@H]2[C@H](O[C@H]3CC[C@]4(C)[C@H]5CC=C6[C@@H]7CC(C)(C)CC[C@]7(C(=O)O)CC[C@@]6(C)[C@]5(C)CC[C@H]4C3(C)C)OC[C@H](O)[C@@H]2O)[C@H](O)[C@H](O)[C@H]1O | Toxic | 7.46 µM | 0.244 | 23.1 µM | 69.09% | 36.28% | 1.72% | 12.1% | 0.31% | 8.4% | 64% | 4.73% | 51.19% | 6.93% | 54.9% | 3.82% | 30.6% | 44.08% | 8.41% | –
C[C@@H]1O[C@@H](O[C@H]2[C@H](O[C@H]3CC[C@@]4(C)[C@@H](CC[C@]5(C)[C@@H]4CC=C4[C@@H]6CC(C)(C)CC[C@]6(C(=O)O)CC[C@]45C)[C@]3(C)CO)OC[C@H](O[C@@H]3O[C@H](CO)[C@@H](O)[C@H](O)[C@H]3O)[C@@H]2O)[C@H](O)[C@H](O)[C@H]1O [HEDERACOLCHISIDE A] | Toxic | 6.83 µM | 0.115 | 21.1 µM | 58.3% | 30.41% | 61.63% | 15.9% | 1.47% | 13.7% | 7.96% | 8% | 61.72% | 10.3% | 2.2% | 4.61% | 40.23% | 30.28% | 94.9% | –

From ChEMBL document CHEMBL4819123, “Pulchinenosides: Correlation of surface activity-cytotoxicity and hepatocyte apoptosis mechanism study” (Bioorg Med Chem Lett, 2021)
